{"source": "patent US12194038B2", "about": "“Use of flibanserin in preparation of drug for treating androgenic alopecia” (SHANGHAI DIMAIHE BIOTECHNOLOGY CO., LTD., priority 2022, dated 2025)", "key": {"Lncap cells [1]": {"system": "Lncap cells", "settings": "48 h"}, "AGA model mice": {"system": "AGA model mice", "assay": "Hair restoration in testosterone propionate-induced AGA model mice", "assay_type": "in vivo", "settings": "for Effective rate of animal hair restoration (effective rate of drug) / Hair restoration compared with the model group: AGA model mice, intragastric administration for 4 weeks", "protocol": "Animal experiment-related reagents: testosterone propionate, Batch No. T818615. Soybean oil, Batch No. A23GS146219. 80 mg of testosterone propionate was dissolved in 40 mL of soybean oil to prepare a solution at 2 mg/mL. […] Flibanserin, Batch No. W1608745834, 0.32 mg of flibanserin was dissolved in 20 mL of physiological saline to prepare a solution at 1.6×10^−2 mg/mL\nThe experimental animals are male […] mice, non-inbred closed colony, weighing 18-22 g, aged 5 weeks, certificate number: No. 202207119, provided by the Institute of Comparative Medicine, Yangzhou University. In the laboratory, room temperature is 20° C.-22° C., the relative humidity is 40%-60%, ventilation is provided by a ventilation fan, and the natural light source is provided for 12 h/day. The mice were caged, with 7 mice per cage, and the cages were cleaned every three days.\nBefore the injection of testosterone propionate for modeling, pre-treatment was first performed, wherein the pre-treatment comprises: fixing the mice, shaving off the hairs on the back of the mice by an electric shaver, and unhairing vellus hairs using an unhairing cream. […] After successful modeling, the intragastric administration was performed for 4 weeks on the basis of the injection of the testosterone propionate solution. After the administration was completed, the effective rate (percentage of hair restoring mice to the total number of mice) of the drug was subjected to statistical analysis, and the ratio of the area of the hair growing part to the area of the unhairing part in mice was subjected to statistical analysis. The mouse hairs were taken from multiple points at different hair restoring parts on the back of the mice for length measurement and statistical analysis. The mice were sacrificed by cervical dislocation, and the back skin was taken, wherein a part of the back skin was frozen at −80° C. for extracting protein and performing a nuclear protein and cytoplasmic protein separation experiment to explore the inhibition of the drug on the nuclear localization of the androgen receptor dimer, and a part of the back skin was fixed with 4% paraformaldehyde (Cat. No.: AF030) for 48 h, and then subjected to tissue section and HE staining. […] Determination criteria: The unhairing area of the back of the mice after unhairing was measured, noted as A, the hair growing area of the back of the mice after the completion of the administration was measured, noted as B, and the mean value of the […] in each group was taken as the effective rate of animal hair restoration."}, "Lncap cells [2]": {"system": "Lncap cells", "assay": "Inhibition of proliferation of DHT-stimulated Lncap cells by flibanserin (MTT)", "assay_type": "cell-based, human", "settings": "for OD value in administration group-OD value in control group: replicate values"}, "androgen receptor": {"biological_target": "T1, androgen receptor (Mus musculus, UniProt P19091)", "T1 construct": "Mouse primary hair follicle dermal papilla cells were extracted according to enzymatic digestion and cultured for 10 days; endogenous in cells; host or cells: mouse primary hair follicle dermal papilla cells", "T1 sequence (P19091 1-899)": "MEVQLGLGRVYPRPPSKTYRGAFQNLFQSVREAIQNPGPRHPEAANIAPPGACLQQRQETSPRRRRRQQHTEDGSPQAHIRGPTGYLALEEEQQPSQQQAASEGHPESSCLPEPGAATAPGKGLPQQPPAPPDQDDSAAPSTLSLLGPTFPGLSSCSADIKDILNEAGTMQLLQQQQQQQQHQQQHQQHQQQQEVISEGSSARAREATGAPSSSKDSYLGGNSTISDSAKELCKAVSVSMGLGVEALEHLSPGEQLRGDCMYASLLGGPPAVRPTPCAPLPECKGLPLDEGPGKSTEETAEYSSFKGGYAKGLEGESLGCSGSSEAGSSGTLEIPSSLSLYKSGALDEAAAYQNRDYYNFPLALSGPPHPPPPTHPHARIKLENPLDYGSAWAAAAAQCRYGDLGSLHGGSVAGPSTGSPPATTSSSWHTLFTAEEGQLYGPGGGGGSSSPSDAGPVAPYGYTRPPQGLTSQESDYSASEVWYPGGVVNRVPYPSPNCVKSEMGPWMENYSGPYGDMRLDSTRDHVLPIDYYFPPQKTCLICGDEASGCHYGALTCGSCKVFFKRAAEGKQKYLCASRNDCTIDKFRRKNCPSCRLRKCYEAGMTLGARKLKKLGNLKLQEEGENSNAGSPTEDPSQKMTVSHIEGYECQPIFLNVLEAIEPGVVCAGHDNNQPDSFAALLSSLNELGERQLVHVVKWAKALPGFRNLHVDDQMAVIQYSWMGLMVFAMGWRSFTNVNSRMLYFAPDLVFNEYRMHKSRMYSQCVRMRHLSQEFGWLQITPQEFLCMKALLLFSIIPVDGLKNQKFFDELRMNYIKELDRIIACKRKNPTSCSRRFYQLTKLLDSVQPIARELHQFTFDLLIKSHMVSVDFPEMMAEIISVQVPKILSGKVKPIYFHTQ", "assay": "Nuclear protein and cytoplasmic protein separation experiment in primary hair follicle dermal papilla cells", "assay_type": "cell-based", "settings": "48 h"}, "[3]": {"settings": "HE staining of tissue sections, compared with the model group"}, "[4]": {"settings": "DHT 10^−8 mol/L + flibanserin 5 and 1 μmol/L (both doses), compared with finasteride group and DHT group"}}, "note": "Where “and” joins values, the source holds several entries; their conditions need not be identical. Equal entries are not always repeated. Where two headings read alike, the source gives them in different places."}
{"molecule": "C[C@]12CCC(=O)C[C@@H]1CC[C@@H]1[C@@H]2CC[C@]2(C)[C@@H](O)CC[C@@H]12", "note": "[DHT, dihydrotestosterone]", "values": [{"measurement": "Mean proliferation rate", "setting": "Lncap cells [1]; DHT 10^−5 uM", "value": "−12.91", "unit": "%"}, {"measurement": "Mean proliferation rate", "setting": "Lncap cells [1]; DHT 10^−6 uM", "value": 6.30, "unit": "%"}, {"measurement": "Mean proliferation rate", "setting": "Lncap cells [1]; DHT 10^−7 uM", "value": 7.77, "unit": "%"}, {"measurement": "Mean proliferation rate", "setting": "Lncap cells [1]; DHT 10^−8 uM", "value": 9.47, "unit": "%"}, {"measurement": "Mean proliferation rate", "setting": "Lncap cells [1]; DHT 10^−9 uM", "value": 10.01, "unit": "%"}, {"measurement": "Mean proliferation rate", "setting": "Lncap cells [1]; DHT 10^−10 uM", "value": 2.79, "unit": "%"}]}
{"molecule": "CC(C)(C)NC(=O)[C@H]1CC[C@H]2[C@@H]3CC[C@H]4NC(=O)C=C[C@]4(C)[C@H]3CC[C@]12C", "note": "[Finasteride, finasteride]", "values": [{"measurement": "Effective rate of animal hair restoration (effective rate of drug)", "setting": "AGA model mice", "value": 71.4, "unit": "%"}, {"measurement": "Effective rate of animal hair restoration (effective rate of drug)", "setting": "AGA model mice; listed as finasteride", "value": 71.4, "unit": "%"}, {"measurement": "Hair restoration compared with the model group", "setting": "AGA model mice; listed as finasteride", "value": "restored to varying degrees"}]}
{"molecule": "O=c1[nH]c2ccccc2n1CCN1CCN(c2cccc(C(F)(F)F)c2)CC1", "note": "[Flibanserin, flibanserin]", "values": [{"measurement": "inhibition at 0.001 µM", "setting": "Lncap cells [2]; Homo sapiens, LNCaP, flibanserin 0.001 uM, 48 h, after modeling with 10^−9 M DHT, read-out: Mean proliferation inhibition rate", "value": 11.9, "unit": "%"}, {"measurement": "inhibition at 0.1 µM", "setting": "Lncap cells [2]; Homo sapiens, LNCaP, flibanserin 0.1 uM, 48 h, after modeling with 10^−9 M DHT, read-out: Mean proliferation inhibition rate", "value": 11, "unit": "%"}, {"measurement": "inhibition at 1 µM", "setting": "Lncap cells [2]; Homo sapiens, LNCaP, flibanserin 1 uM, 48 h, after modeling with 10^−9 M DHT, read-out: Mean proliferation inhibition rate", "value": 20.1, "unit": "%"}, {"measurement": "inhibition at 10 µM", "setting": "Lncap cells [2]; Homo sapiens, LNCaP, flibanserin 10 uM, 48 h, after modeling with 10^−9 M DHT, read-out: Mean proliferation inhibition rate", "value": 45.9, "unit": "%"}, {"measurement": "inhibition at 50 µM", "setting": "Lncap cells [2]; Homo sapiens, LNCaP, flibanserin 50 uM, 48 h, after modeling with 10^−9 M DHT, read-out: Mean proliferation inhibition rate", "value": 82.4, "unit": "%"}, {"measurement": "inhibition at 100 µM", "setting": "Lncap cells [2]; Homo sapiens, LNCaP, flibanserin 100 uM, 48 h, after modeling with 10^−9 M DHT, read-out: Mean proliferation inhibition rate", "value": 85.5, "unit": "%"}, {"measurement": "OD value in administration group-OD value in control group", "setting": "Lncap cells [2]; flibanserin 0.001 uM, 48 h", "value": "0.72 and 0.981 and 0.8943 and 0.8405 and 0.9681"}, {"measurement": "OD value in administration group-OD value in control group", "setting": "Lncap cells [2]; flibanserin 0.1 uM, 48 h", "value": "0.7821 and 0.9153 and 0.9204 and 0.8399 and 0.9938"}, {"measurement": "OD value in administration group-OD value in control group", "setting": "Lncap cells [2]; flibanserin 1 uM, 48 h", "value": "0.7947 and 0.8164 and 0.702 and 0.8345 and 0.8472"}, {"measurement": "OD value in administration group-OD value in control group", "setting": "Lncap cells [2]; flibanserin 10 uM, 48 h", "value": "0.3592 and 0.6076 and 0.5562 and 0.5302 and 0.6538"}, {"measurement": "OD value in administration group-OD value in control group", "setting": "Lncap cells [2]; flibanserin 50 uM, 48 h", "value": "0.1738 and 0.1424 and 0.1556 and 0.1886 and 0.2218"}, {"measurement": "OD value in administration group-OD value in control group", "setting": "Lncap cells [2]; flibanserin 100 uM, 48 h", "value": "0.1345 and 0.1157 and 0.119 and 0.1751 and 0.1812"}, {"measurement": "Inhibition of the proliferation of Lncap cells", "setting": "Lncap cells [2]; flibanserin at a low concentration, MTT", "value": "can inhibit"}, {"measurement": "Effective rate of animal hair restoration (effective rate of drug)", "setting": "AGA model mice", "value": 85.7, "unit": "%"}, {"measurement": "Effective rate of animal hair restoration (effective rate of drug)", "setting": "AGA model mice; listed as flibanserin", "value": 85.7, "unit": "%"}, {"measurement": "Hair restoration compared with the model group", "setting": "AGA model mice; listed as flibanserin", "value": "restored to varying degrees"}, {"measurement": "Diameter of hair follicles", "setting": "AGA model mice; [3]", "value": "increase"}, {"measurement": "Number of hair follicles per unit area", "setting": "AGA model mice; [3]", "value": "increase"}, {"measurement": "Ratio of anagen to telogen", "setting": "AGA model mice; [3]", "value": "increase"}, {"measurement": "Ratio of epidermal thickness to dermal thickness", "setting": "AGA model mice; [3]", "value": "increase"}, {"measurement": "Hair length", "setting": "AGA model mice; compared with the model group", "value": "increase"}, {"measurement": "Total level of the androgen receptor", "setting": "androgen receptor; DHT 10^−8 mol/L + finasteride 5 μmol/L or flibanserin 5 and 1 μmol/L, compared with DHT group", "value": "no significant difference"}, {"measurement": "Level of the androgen receptor in the cytoplasm", "setting": "androgen receptor; [4]", "value": "increased"}, {"measurement": "Level of the androgen receptor in the nucleus", "setting": "androgen receptor; [4]", "value": "decreased"}]}
